Experimental data as given in patent publication US8236772B2, “Methods of modulating angiogenesis and screening compounds for activity in modulating angiogenesis” (The Board of Trustees of the Leland Stanford Junior …, priority 2005, dated 2012).
“Also recorded” adds a separate entry of the source. Like-named read-outs stand apart in the source and are kept apart here.

Columns and labels:
[1] = test system: human microvascular endothelial cell (HMVEC) migration; test: Cell migration assay (wounding) on HMVEC; format: cell-based; details: for effect of siRNA on growth factor induced endothelial cell migration: 96 hours after transfection, FIG. 7; for HMVEC migration after siRNA transfection: in the absence of added growth factors, vs vehicle control, FIG. 6B
[2] = test system: thioredoxin activity in human microvascular endothelial cells; test: Thioredoxin bioassay (colorimetric, DTNB) on HMVEC protein extracts; format: cell-based; details: for thioredoxin activity after siRNA transfection: in the absence of the stimuli, vs vehicle control, FIG. 6A
Method: Thioredoxin Bioassay. Thioredoxin was assayed based upon previously published colorimetric protocols. Wang et al. (2002) J. Biol Chem. 277:26496-26500. The level of thioredoxin activity is assessed at […] via the […] of a colorimetric substrate DTNB (5,5′-dithiobis(2-nitrobenzoic acid)). Protein extracts were obtained by subjecting cells to a lysis buffer (20 mM HEPES (pH 7.9), 300 mM NaCl, 100 mM KCl, 10 mM EDTA, 0.1% Nonidet P-40, PMSF protease inhibitors).
Double-stranded siRNA were transfected into cells (Lipofectamine2000 reagent, Invitrogen). 24 hours after transfection, HMVEC migration experiments were performed, in the presence of vehicle or stimuli. Cell migration and thioredoxin activity were assayed as described above.

[3] = test system: human microvascular endothelial cell (HMVECs)
Excerpt: To further investigate the effects of nAChR-dependent pathways on EC migration, the effect of the nAChR antagonist, hexamethonium, on EC migration induced by nicotine, VEGF and bFGF was studied.

HMVECs = test: cDNA microarray analysis of HMVECs; format: cell-based, human
Method: Microarray Analyses. HMVECs were grown to 50-70% confluency. Subconfluent rather than confluent HMVEC cultures were studied because they more closely resemble conditions associated with cell migration in vivo, and because this condition is associated with increased EC expression of α7-nAChRs. Heeschen et al. (2002) J. Clin. Invest. 110:527-536. The concentration of the FBS in the media was then reduced to 1% so as to render the endothelial cells quiescent. After 24 hours, nicotine (10^−8M), VEGF (10 ng/ml) or bFGF (10 ng/ml) was added. Total RNA was then harvested at 24 hours. Five separate experiments per condition were processed for cDNA microarray analysis. Fluorescently labeled cDNAs (stimulated HMVECs versus vehicle-treated HMVECs at 24 hours post incubation) were hybridized on cDNA microarrays containing 39711 nonredundant cDNA clones, representing 26,260 unique UniGene clusters (SFGF, Stanford, Calif.). Eisen et al. (1998) Proc Natl Acad Sci USA 95:14863-14868. Scanning of processed microarray slides was performed using a GenePix400A scanner and images analysed with GENEPIX PRO software (Axon Instruments, Foster City, Calif.). Microarray data were stored in the Stanford Microarray Database (Stanford, Calif.). Spots with signal less than 2.5-fold above background were removed in both channels and/or a regression correlation of less than 0.6. Genes with less than 80% evaluable data were excluded and the remaining data was then normalized. The significance of microarrays (SAM) algorithm was used with a one-class design to identify genes differentially expressed by treatment with each stimuli at each timepoint. Tusher et al. (2001) Proc Natl Acad Sci USA. 98:5116-5121. Delta values giving approximately 5% false discovery were chosen. To analyze convergent gene expression profiles, all differentially expressed genes at 24 hours were hierarchically clustered by gene and by array (Cluster software, version 2.11), and the results analysed with Treeview software (version 1.6). Eisen et al. (1998) supra.

[4] = vs vehicle, nicotine 10^−8M to 10^−4M, VEGF or bFGF 1-10 ng/ml, FIG. 1, 2A, 5B
[5] = HMVEC, vs vehicle, nicotine 10^−8M, VEGF 10 ng/ml, bFGF 10 ng/ml, hexamethonium 10^−4M, FIG. 4, 5A
[6] = HMVEC, 24 h, effect stronger for bFGF than for nicotine or VEGF, FIG. 3B Panel D

C[N+](C)(C)CCCCCC[N+](C)(C)C [hexamethonium, hexamethonium bromide]
effect on growth factor (VEGF or bFGF)-induced EC migration [1]: significantly attenuated | effect on nicotine-induced EC migration [1]: abrogated; also recorded: abolished | effect on nicotine-, VEGF- or bFGF-induced thioredoxin activity [2]: inhibited | thioredoxin activity, agent alone [2]: no significant effect | cell death (cellular toxicity) ([3]; antagonist alone, MTT assay): did not induce cell death

CNC1(C)C2CCC(C2)C1(C)C (stereo not shown) [mecamylamine]
cell death (cellular toxicity) [3]: did not induce cell death

CN1CCC[C@H]1c1cccnc1 [nicotine, S-3-(1-methyl-2-pyrrolidinyl)pyridine, reference compound]
concentration of maximal stimulation of EC migration ([1]; HMVEC, dose range 10^−8M to 10^−4M, FIG. 2A): 10^−8 M | EC (HMVEC) migration, stimulus alone [1, 4]: greater migratory activity; also recorded: induced human microvascular endothelial cell (HMVEC) migration in a dose-dependent fashion | EC (HMVEC) migration, stimulus alone ([1]; vs vehicle, nicotine 10^−8M to 10^−4M, VEGF or bFGF 1-10 ng/ml, FIG. 1, 2A, 5B, listed as Nicotine): stimulated EC migration in a dose-dependent manner | thioredoxin activity, agent alone [2, 5]: induced HMVEC thioredoxin activity significantly above vehicle; also recorded: increased | thioredoxin activity, agent alone ([2]; HMVEC, vs vehicle, nicotine 10^−8M, VEGF 10 ng/ml, bFGF 10 ng/ml, hexamethonium 10^−4M, FIG. 4, 5A, listed as Nicotine): increased | expression of the VEGF receptor FLT1 (HMVECs; [6]): induced activation

VEGF
EC (HMVEC) migration, stimulus alone [1]: induced EC migration | concentration of maximal effects on EC migration [1]: 10 ng/mL | thioredoxin activity, agent alone [2]: induced HMVEC thioredoxin activity significantly above vehicle; also recorded: increased | Fold Change CHRM5 (Cholinergic muscarinic receptor 5) (HMVECs): 2.0 | Fold Change CHRNA3 (Nicotinic receptor alpha polypeptide 3) (HMVECs): 1.7 | Fold Change CHRNA10 (Nicotinic receptor alpha polypeptide 10) (HMVECs): 2.0 | Fold Change CHRNB2 (Nicotinic receptor beta polypeptide 2) (HMVECs): 6.9 | Fold Change CHRNB3 (Nicotinic receptor beta polypeptide 3) (HMVECs): 2.2 | expression of the VEGF receptor FLT1 (HMVECs): induced activation

bFGF: human bFGF purchased from R&D Systems; angiogenic growth factor
concentration of maximal effects on EC migration ([1]; HMVEC, range 1-10 ng/ml): 10 ng/mL | EC (HMVEC) migration, stimulus alone [1, 4]: induced EC migration | thioredoxin activity, agent alone [2, 5]: less robust (P=0.02 vs. vehicle) but significant increase; also recorded: increased | expression of the VEGF receptor FLT1 (HMVECs; [6]): induced activation

scrambled siRNA: Scrambled (randomly arranged) RNAi GUUGGCCAUUCUACUUCGCTTdtt (SEQ ID NO:17) used as negative control (GUUGGCCAUUCUACUUCGCTTDTT; dTdT overhang, further chemistry not given here)
effect of siRNA on growth factor induced endothelial cell migration ([1]; HMVEC): no effect | HMVEC migration after siRNA transfection [1]: no effect | thioredoxin activity after siRNA transfection ([2]; HMVEC): no effect

siRNA against TXNIP: Double-stranded siRNA to TXNIP: sense ACAGACUUCGGAGUACCUGtt (SEQ ID NO: 14), antisense CAGGUACUCCGAAGUCUGUtt (SEQ ID NO: 15) (sense ACAGACUUCGGAGUACCUGTT; antisense CAGGUACUCCGAAGUCUGUTT; lower-case overhang letters stated to be dideoxynucleotides, upper case undefined, further chemistry not given here)
HMVEC migration after siRNA transfection [1]: strongly stimulated; also recorded: significantly increased | thioredoxin activity after siRNA transfection ([2]; HMVEC): significantly stimulated; also recorded: significantly increased

siRNA directed against ARHGEF: Double-stranded siRNA to ARHGEF7: sense GCCUGUGUCUCCCAAAUCAtt (SEQ ID NO: 5), antisense UGAUUUGGGAGACACAGGCtt (SEQ ID NO: 6) (sense GCCUGUGUCUCCCAAAUCATT; antisense UGAUUUGGGAGACACAGGCTT; lower-case overhang letters stated to be dideoxynucleotides, upper case undefined, further chemistry not given here)
effect of siRNA on growth factor induced endothelial cell migration ([1]; HMVEC): inhibited

siRNA directed against P4HA: Double-stranded siRNA to P4HA1: sense GGAUUUGUUGGGCAUCCAGtt (SEQ ID NO: 11), antisense CUGGAUGCCCAACAAAUCCtt (SEQ ID NO: 12) (sense GGAUUUGUUGGGCAUCCAGTT; antisense CUGGAUGCCCAACAAAUCCTT; lower-case overhang letters stated to be dideoxynucleotides, upper case undefined, further chemistry not given here)
effect of siRNA on growth factor induced endothelial cell migration ([1]; HMVEC): inhibited

siRNA directed against Rin2: Double-stranded siRNA to Rin2: sense CUGAAACAGGAGAUGGUGCtt (SEQ ID NO: 8), antisense GCACCAUCUCCUGUUUCAGtt (SEQ ID NO: 9) (sense CUGAAACAGGAGAUGGUGCTT; antisense GCACCAUCUCCUGUUUCAGTT; lower-case overhang letters stated to be dideoxynucleotides, upper case undefined, further chemistry not given here)
effect of siRNA on growth factor induced endothelial cell migration ([1]; HMVEC): inhibited

α-bungarotoxin
effect on nicotine-induced EC migration [1]: abolished
